Where a name gives a salt, the structure may show the parent alone.
What was measured:
human CDK4/cyclin D3 = target: T1, human CDK4/cyclin D3 (Homo sapiens, UniProt P11802); test: Inhibition of CDK4/cyclin D retinoblastoma kinase activity (Ki; % inhibition); format: biochemical; settings: for Ki: apparent Ki, CDK4/cyclin D3, Rb substrate
T1 construct: made in house; host or cells: insect cells co-infected with baculovirus vectors
In short: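 Radiometric filter-binding read-out: Rb residues 386-928 phosphorylated by 5 nM CDK4/cyclin D3(1-264) from baculovirus-infected insect cells, 25 μM ATP, HEPES pH 7.4, 30 °C. Run 20 min, or 60 min for tight-binding inhibitors. Screening at 30 nM theoretical compound; apparent Ki by competitive-inhibition fitting.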

HCT-116 cell line = test: Inhibition of cell growth, MTT tetrazolium salt assay; format: cell-based; settings: for IC50: Homo sapiens, HCT-116, 120 h, MTT, three to five days
In short: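 HCT-116 cells in McCoy's 5A were dosed 4 h after plating with compounds in 0.5% DMSO and grown 3–5 days at 37 °C. Then 0.2 mg/mL MTT was added for 4 h and formazan absorbance read at 540 nm. IC50/IC90 came from semi-log plots against DMSO-only controls.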

CDK2/cyclin A = target: T2, CDK2/cyclin A (Homo sapiens, UniProt P24941); test: Inhibition of CDK2/cyclin A retinoblastoma kinase activity (Ki; % inhibition); format: biochemical; settings: for Ki: apparent Ki, CDK2/cyclin A, Rb substrate
T2 construct: made in house; host or cells: CDK2: insect cells (baculovirus); cyclin A: E. coli
In short: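 Apparent Ki values came from fitting concentration-dependent activity data to competitive (or competitive tight-binding) models, and % inhibition from single 30 nM screens of library compounds. Activity was measured as ³²P/³³P incorporation from 25 μM ATP into an Rb substrate by 10 or 19 nM CDK2/delta cyclin A at 30 °C over 60–75 min, pH 7.4.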

[1] = HCT-116 cells, 0.25 μM compound

T1 sequence (P11802 whole entry): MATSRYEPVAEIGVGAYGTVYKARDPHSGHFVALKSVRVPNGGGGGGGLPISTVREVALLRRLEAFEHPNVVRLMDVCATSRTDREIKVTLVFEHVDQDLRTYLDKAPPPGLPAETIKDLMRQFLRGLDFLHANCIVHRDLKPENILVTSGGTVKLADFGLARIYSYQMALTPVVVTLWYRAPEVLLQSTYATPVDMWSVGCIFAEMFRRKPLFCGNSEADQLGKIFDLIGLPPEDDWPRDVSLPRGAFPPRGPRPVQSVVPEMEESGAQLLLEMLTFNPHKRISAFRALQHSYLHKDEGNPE
T1 sequence (P30281 1-264 partner limits assumed): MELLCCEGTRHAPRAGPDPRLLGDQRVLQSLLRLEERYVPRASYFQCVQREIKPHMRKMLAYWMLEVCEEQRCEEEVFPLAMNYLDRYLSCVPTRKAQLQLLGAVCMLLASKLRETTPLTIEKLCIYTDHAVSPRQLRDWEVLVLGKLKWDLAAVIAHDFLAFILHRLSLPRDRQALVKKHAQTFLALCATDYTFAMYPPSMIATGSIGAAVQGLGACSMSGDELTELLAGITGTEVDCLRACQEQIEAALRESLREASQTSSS

Structure (SMILES)	CDK4 % Inhibition at 0.03 μM (human CDK4/cyclin D3; 0.03 μM compound)	CDK2 % Inhibition at 0.03 μM (CDK2/cyclin A; 0.03 μM compound)	CDK4 % Inhibition at 0.03 μM (human CDK4/cyclin D3; at 0.03 μM)	CDK2 % Inhibition at 0.03 μM (CDK2/cyclin A; at 0.03 μM)	HCT-116 % Inhibition at 0.1 μM (HCT-116 cell line; HCT-116 cells, 0.1 μM compound)	HCT-116 % Inhibition at 0.25 μM (HCT-116 cell line; [1])	HCT-116 % Inhibition at 0.25 μM (HCT-116 cell line; HCT-116, at 0.25 μM)	also measured
Cn1ccnc1CNC(=O)c1ccc(Nc2nc(N)c(C(=O)c3c(F)cccc3F)s2)cc1 [Example A50, 4-[4-Amino-5-(2,6-difluoro-benzoyl)-thiazol-2-ylamino]-N-(1-methyl-1H-imidazol-2-ylmethyl)-benzamide Hydrochloride Salt]								Ki (human CDK4/cyclin D3): 15 nM; IC50 (HCT-116 cell line): 170 nM; Ki (CDK2/cyclin A): 20 nM
Cc1ccc(NC(=O)c2ccc(Nc3nc(N)c(C(=O)c4c(F)cccc4F)s3)cc2)c(Cl)c1 [Example G44]			14%	8%			72%	
Nc1nc(Nc2ccc(C(=O)NC(CO)CSCc3ccccc3)cc2)sc1C(=O)c1c(F)cccc1F (stereo not shown) [Example G383]	−10%	15%			33%	51%		
C[C@@H]1CCC[C@H](C)N1CCNC(=O)c1ccc(Nc2nc(N)c(C(=O)c3c(F)cccc3F)s2)cc1 [Example A51]								Ki (human CDK4/cyclin D3): 7 nM; IC50 (HCT-116 cell line): 90 nM; Ki (CDK2/cyclin A): 110 nM
Cc1cccc(Cl)c1NC(=O)c1ccc(Nc2nc(N)c(C(=O)c3c(F)cccc3F)s2)cc1 [Example G15]			4%	−12%			46%	
CC(=O)c1ccc(NC(=O)c2ccc(Nc3nc(N)c(C(=O)c4c(F)cccc4F)s3)cc2)cc1 [Example G310]	10%	−5%			14%	53%		
CN(Cc1ccco1)C(=O)c1ccc(Nc2nc(N)c(C(=O)c3c(F)cccc3F)s2)cc1 [Example G307]	12%	−3%			8%	54%		
Nc1nc(Nc2ccc(C(=O)NCc3ccc(F)c(F)c3)cc2)sc1C(=O)c1c(F)cccc1F [Example G317]	33%	27%			27%	87%		
Nc1nc(Nc2ccc(C(=O)NC(CO)c3ccccc3)cc2)sc1C(=O)c1c(F)cccc1F (stereo not shown) [Example G155]			38%	32%				HCT-116 % Inhibition at 0.1 μM (HCT-116 cell line; HCT-116, at 0.1 μM): 0%; HCT-116 % Inhibition at 0.25 μM (HCT-116 cell line; HCT-116, at 0.25 μM, 0.25 µM): 67%
Cc1cc(NC(=O)c2ccc(Nc3nc(N)c(C(=O)c4c(F)cccc4F)s3)cc2)ccc1Cl [Example G38]			7%	3%			65%	
Cc1cc(NC(=O)c2ccc(Nc3nc(N)c(C(=O)c4c(F)cccc4F)s3)cc2)ccc1F [Example G330]	12%	−1%			2%	55%		
CN(Cc1ccccc1Cl)C(=O)c1ccc(Nc2nc(N)c(C(=O)c3c(F)cccc3F)s2)cc1 [Example G259]	−20%	−30%			21%	46%		
CN(C)CCNC(=O)c1ccc(Nc2nc(N)c(C(=O)c3c(Cl)cccc3Cl)s2)cc1 [Example B4, 4-[4-Amino-5-(2,6-dichloro-benzoyl)-thiazol-2-ylamino]-N-(2-dimethylamino-ethyl)-benzamide]								Ki (human CDK4/cyclin D3): 8 nM; IC50 (HCT-116 cell line): 520 nM; Ki (CDK2/cyclin A): 220 nM
Nc1nc(Nc2ccc(C(=O)Nc3ccc(O)c(Cl)c3)cc2)sc1C(=O)c1c(F)cccc1F [Example G394]	11%	35%			14%	73%		
CNC(C)(C)CNC(=O)c1ccc(Nc2nc(N)c(C(=O)c3c(F)cccc3F)s2)cc1 [Example A18, 4-{4-Amino-5-[1-(2,6-difluoro-phenyl)-methanoyl]-thiazol-2-ylamino}-N-(2-methyl-2-methylamino-propyl)-benzamide Acetic Acid Salt]								Ki (human CDK4/cyclin D3): 6 nM; IC50 (HCT-116 cell line): 920 nM; Ki (CDK2/cyclin A): 190 nM
CCN1CCC[C@H]1CNC(=O)c1ccc(Nc2nc(N)c(C(=O)c3c(F)cccc3F)s2)cc1 [Example A38, 4-[4-Amino-5-(2,6-difluoro-benzoyl)-thiazol-2-ylamino]-N-(1-ethyl-pyrrolidin-2S-yl-methyl)-benzamide]								Ki (human CDK4/cyclin D3): 24 nM; IC50 (HCT-116 cell line): 100 nM; Ki (CDK2/cyclin A): 140 nM

Second part, led by results:

CDK4 % Inhibition at 0.03 μM (human CDK4/cyclin D3; 0.03 μM compound)	CDK2 % Inhibition at 0.03 μM (CDK2/cyclin A; 0.03 μM compound)	CDK4 % Inhibition at 0.03 μM (human CDK4/cyclin D3; at 0.03 μM)	CDK2 % Inhibition at 0.03 μM (CDK2/cyclin A; at 0.03 μM)	Structure (SMILES)	HCT-116 % Inhibition at 0.1 μM (HCT-116 cell line; HCT-116 cells, 0.1 μM compound)	HCT-116 % Inhibition at 0.25 μM (HCT-116 cell line; [1])	HCT-116 % Inhibition at 0.25 μM (HCT-116 cell line; HCT-116, at 0.25 μM)	also measured
26%	16%			Cc1ccc(CNC(=O)c2ccc(Nc3nc(N)c(C(=O)c4c(F)cccc4F)s3)cc2)cc1 [Example G253]	19%	62%		
		27%	9%	Nc1nc(Nc2ccc(C(=O)NCCCN3CCOCC3)cc2)sc1C(=O)c1c(F)cccc1F [Example G132]			52%	HCT-116 % Inhibition at 0.1 μM (HCT-116 cell line; HCT-116, at 0.1 μM): 0%
31%	29%			Nc1nc(Nc2ccc(C(=O)NCc3cccc(F)c3)cc2)sc1C(=O)c1c(F)cccc1F [Example G252]	33%	67%		
		10%	24%	Nc1nc(Nc2ccc(C(=O)N3CCC(O)CC3)cc2)sc1C(=O)c1c(F)cccc1F [Example G56]			59%	
5%	−16%			CCCN(C(=O)c1ccc(Nc2nc(N)c(C(=O)c3c(F)cccc3F)s2)cc1)C(C)CC (stereo not shown) [Example G356]	27%	50%		
		20%	13%	Nc1nc(Nc2ccc(C(=O)NC3CCSC3=O)cc2)sc1C(=O)c1c(F)cccc1F (stereo not shown) [Example G121]			55%	HCT-116 % Inhibition at 0.1 μM (HCT-116 cell line; HCT-116, at 0.1 μM): 0%
		30%	18%	CCN(CC)CCNC(=O)c1ccc(Nc2nc(N)c(C(=O)c3c(F)cccc3F)s2)cc1 [Example G157]			87%	HCT-116 % Inhibition at 0.1 μM (HCT-116 cell line; HCT-116, at 0.1 μM): 0%
−2%	2%			Nc1nc(Nc2ccc(C(=O)NCCc3cccc(C(F)(F)F)c3)cc2)sc1C(=O)c1c(F)cccc1F [Example G276]	25%	58%		
		15%	14%	C[C@H](NC(=O)c1ccc(Nc2nc(N)c(C(=O)c3c(F)cccc3F)s2)cc1)C(N)=O [Example G191]			51%	HCT-116 % Inhibition at 0.1 μM (HCT-116 cell line; HCT-116, at 0.1 μM): 3%
22%	18%			Nc1nc(Nc2ccc(C(=O)NC3CCOC3=O)cc2)sc1C(=O)c1c(F)cccc1F (stereo not shown) [Example G199]	12%	52%		
30%	17%			Nc1nc(Nc2ccc(C(=O)NCc3cc(F)ccc3F)cc2)sc1C(=O)c1c(F)cccc1F [Example G309]	5%	65%		
		25%	11%	CN(C)C1CCN(C(=O)c2ccc(Nc3nc(N)c(C(=O)c4c(F)cccc4F)s3)cc2)C1 (stereo not shown) [Example G37]				HCT-116 % Inhibition at 0.25 μM (HCT-116 cell line; HCT-116, at 0.25 μM, 0.25 µM): 65%
		23%	8%	CNC(=O)C(C)NC(=O)c1ccc(Nc2nc(N)c(C(=O)c3c(F)cccc3F)s2)cc1 (stereo not shown) [Example G192]			49%	HCT-116 % Inhibition at 0.1 μM (HCT-116 cell line; HCT-116, at 0.1 μM): 13%
